Data set [1] deals with Rattus norvegicus. Kind of data set: Anti-inflammatory activity in rat Freund's adjuvant induced arthritis model of chronic inflammation assessed as inhibition of right hind paw swelling at equimolar oral dose relative to 10 mg/kg, po indomethacin dosed after 14 days from day of adjuvant injection until day 21 and measured on day 3. Type of data set: functional.
The test system of data set [2] is Rattus norvegicus. Kind of data set: Anti-inflammatory activity in rat model of acute inflammation assessed as inhibition of carrageenan-induced paw oedema dosed at equimolar oral dose relative to 10 mg/kg, po indomethacin dosed 1 hr before carrageenan injection and measured 1 hr after carrageenan injection. Type of data set: functional.
Data set [3] concerns Rattus norvegicus. Kind of data set: Anti-inflammatory activity in rat model of acute inflammation assessed as inhibition of carrageenan-induced paw oedema dosed at equimolar oral dose relative to 10 mg/kg, po indomethacin dosed 1 hr before carrageenan injection and measured 5 hrs after carrageenan injection. Type of data set: functional.
The subject of data set [4] is Rattus norvegicus. The data set can be described thus: Anti-inflammatory activity in rat Freund's adjuvant induced arthritis model of chronic inflammation assessed as inhibition of right hind paw swelling at equimolar oral dose relative to 10 mg/kg, po indomethacin dosed after 14 days from day of adjuvant injection until day 21 and measured on day 18. Type of data set: functional.

The subject of data set [5] is Rattus norvegicus. The data set can be described thus: Anti-inflammatory activity in rat model of sub-chronic inflammation assessed as inhibition of cotton pellet-induced granuloma by measuring weight of granulation dosed once daily at equimolar oral dose relative to 10 mg/kg, po indomethacin for seven consecutive days from day of cotton pellet insertion (94.13 +/- 8.1 mg). Type of data set: functional.

Data set [6] has as its system Rattus norvegicus. Kind of data set: Gastro-intestinal toxicity in rat Freund's adjuvant induced arthritis model of chronic inflammation assessed as ulcer index at equimolar oral dose relative to 10 mg/kg, po indomethacin dosed after 14 days from day of adjuvant injection until day 21 and measured on day 21. Type of data set: organism-based. The following applies: in vivo, 336 h.

Data set [7] concerns Rattus norvegicus. The data set can be described thus: Hepato-toxicity in rat Freund's adjuvant induced arthritis model of chronic inflammation assessed as assessed as SGPT level at equimolar oral dose relative to 10 mg/kg, po indomethacin dosed after 14 days from day of adjuvant injection until day 21 and measured on day 21 (reference value: 34.23 +/- 2.5 U/mL). Type of data set: organism-based. The following applies: in vivo, 336 h.

Data set [8] relates to Rattus norvegicus. Kind of data set: Renal toxicity in rat Freund's adjuvant induced arthritis model of chronic inflammation assessed as assessed as total protein level at equimolar oral dose relative to 10 mg/kg, po indomethacin dosed after 14 days from day of adjuvant injection until day 21 and measured on day 21 (reference value: 1.78 +/- 0.11 g/dL). The note with it: in vivo, 336 h. Type of data set: organism-based.

Data set [9] deals with Rattus norvegicus. The data set can be described thus: Toxicity in healthy albino rat assessed as induction of diarrhoea up to 500 mg/kg, po. Type of data set: organism-based. The note with it: in vivo.
Data set [10] concerns Rattus norvegicus. The data set can be described thus: Toxicity in healthy albino rat assessed as induction of lethargy up to 500 mg/kg, po. The note with it: in vivo. Type of data set: organism-based.
For data set [11], the system named is Rattus norvegicus. The data set can be described thus: Renal toxicity in rat Freund's adjuvant induced arthritis model of chronic inflammation assessed as histological changes at equimolar oral dose relative to 10 mg/kg, po indomethacin dosed after 14 days from day of adjuvant injection until day 21 and measured on day 21 by hematoxylin and eosin staining based microscopy. Type of data set: organism-based. The note with it: in vivo, 336 h.

For data set [12], the system named is Rattus norvegicus. Kind of data set: Gastro-intestinal toxicity in rat Freund's adjuvant induced arthritis model of chronic inflammation assessed as histological changes at equimolar oral dose relative to 10 mg/kg, po indomethacin dosed after 14 days from day of adjuvant injection until day 21 and measured on day 21 by hematoxylin and eosin staining based microscopy. Type of data set: organism-based. The following applies: in vivo, 336 h.

Data set [13] concerns Rattus norvegicus. The data set can be described thus: Renal toxicity in rat Freund's adjuvant induced arthritis model of chronic inflammation assessed as assessed as creatinine level at equimolar oral dose relative to 10 mg/kg, po indomethacin dosed after 14 days from day of adjuvant injection until day 21 and measured on day 21 (reference value: 0.62 +/- 0.049 mg/dL). Type of data set: organism-based. The note with it: in vivo, 336 h.

Data set [14] relates to Rattus norvegicus. The data set can be described thus: Hepato-toxicity in rat Freund's adjuvant induced arthritis model of chronic inflammation assessed as histological changes at equimolar oral dose relative to 10 mg/kg, po indomethacin dosed after 14 days from day of adjuvant injection until day 21 and measured on day 21 by hematoxylin and eosin staining based microscopy. Type of data set: organism-based. The note with it: in vivo, 336 h.

In data set [15] the test system is Rattus norvegicus. Kind of data set: Toxicity in healthy albino rat assessed as induction of convulsion up to 500 mg/kg, po. Type of data set: organism-based. The following applies: in vivo.

Regarding `Nc1ccc(-c2nnc(Cn3nc(-c4ccccc4)c(-c4ccccc4)nc3=O)o2)cc1`, the “inhibition (INH)” value in the data set with Rattus norvegicus [1] came out at 31.14%; in the data set on Rattus norvegicus [2] it was 24.02%; in the data set with Rattus norvegicus [3] it was 58.83%; with Rattus norvegicus [4], 49.23%. For the same compound, the Activity in the data set with Rattus norvegicus [5] is 56.29 mg; with Rattus norvegicus [7] it was 39.11 U/ml; in the data set on Rattus norvegicus [8], 1.86 g/dL; in the data set on Rattus norvegicus [9], “Non-toxic”; in the data set with Rattus norvegicus [10] it was “Non-toxic”; in the data set with Rattus norvegicus [11], “Non-toxic”. Also, the Activity entry was “Non-toxic” in the data set on Rattus norvegicus [12], 0.86 mg/dL in the data set with Rattus norvegicus [13], “Non-toxic” in the data set on Rattus norvegicus [14] and “Non-toxic” in the data set with Rattus norvegicus [15]. Further, in the data set with Rattus norvegicus [6], the UI came to 12.
For the compound `O=c1nc(-c2ccccc2)c(-c2ccccc2)nn1Cc1nnc(-c2ccc(O)cc2O)o1`, the “inhibition (INH)” value was found to be 31.26% in the data set with Rattus norvegicus [1], 24.71% in the data set on Rattus norvegicus [2], 59.07% in the data set with Rattus norvegicus [3] and 52.44% in the data set on Rattus norvegicus [4]. For the same compound, the Activity in the data set with Rattus norvegicus [5] was 56.11 mg; in the data set on Rattus norvegicus [7], 39.67 U/ml; in the data set on Rattus norvegicus [8], 1.88 g/dL; in the data set with Rattus norvegicus [9], “Non-toxic”; in the data set with Rattus norvegicus [10], “Non-toxic”; in the data set on Rattus norvegicus [11] it was “Non-toxic”. Also, the Activity result in the data set with Rattus norvegicus [12] was “Non-toxic”; in the data set on Rattus norvegicus [13], 0.72 mg/dL; in the data set with Rattus norvegicus [14] it was “Non-toxic”; with Rattus norvegicus [15], “Non-toxic”. Besides, the UI in the data set with Rattus norvegicus [6] came out at 10.
Consider `O=c1nc(-c2ccccc2)c(-c2ccccc2)nn1Cc1nnc(-c2ccc(Cl)cc2)o1`, for which the “inhibition (INH)” value was 30.02% in the data set with Rattus norvegicus [1], 22.98% with Rattus norvegicus [2], 57.64% in the data set with Rattus norvegicus [3] and 48.87% with Rattus norvegicus [4]. For the same compound, the Activity was 57.8 mg in the data set on Rattus norvegicus [5]; 42.45 U/ml in the data set with Rattus norvegicus [7]; 1.91 g/dL in the data set with Rattus norvegicus [8]; “Non-toxic” with Rattus norvegicus [9]; “Non-toxic” in the data set on Rattus norvegicus [10]; 0.78 mg/dL with Rattus norvegicus [13]. Besides, in the data set with Rattus norvegicus [15], the Activity result was “Non-toxic”. Besides, in the data set on Rattus norvegicus [6], the UI came out at 18.
Consider `O=c1nc(-c2ccccc2)c(-c2ccccc2)nn1Cc1nnc(-c2ccc([N+](=O)[O-])cc2)o1`, for which the “inhibition (INH)” value turned out to be 32.01% with Rattus norvegicus [1], 19.98% in the data set with Rattus norvegicus [2], 55.96% in the data set on Rattus norvegicus [3] and 45.9% in the data set with Rattus norvegicus [4]. For the same compound, the Activity in the data set with Rattus norvegicus [5] is 58.07 mg; in the data set with Rattus norvegicus [7] it was 45.28 U/ml; in the data set on Rattus norvegicus [8], 1.84 g/dL; in the data set with Rattus norvegicus [9] it was “Non-toxic”; with Rattus norvegicus [10], “Non-toxic”; with Rattus norvegicus [13], 0.88 mg/dL. For the same compound, in the data set on Rattus norvegicus [15], the Activity entry is on record as “Non-toxic”. The UI with Rattus norvegicus [6] amounted to 16.
As to `COc1ccc(-c2nnc(Cn3nc(-c4ccccc4)c(-c4ccccc4)nc3=O)o2)cc1`, the “inhibition (INH)” value was determined as 30.02% with Rattus norvegicus [1], 18.24% in the data set on Rattus norvegicus [2], 55.25% with Rattus norvegicus [3] and 45.78% in the data set on Rattus norvegicus [4]. Moreover, the Activity is 58.51 mg with Rattus norvegicus [5]; 41.31 U/ml in the data set on Rattus norvegicus [7]; 1.81 g/dL in the data set with Rattus norvegicus [8]; “Non-toxic” with Rattus norvegicus [9]; “Non-toxic” with Rattus norvegicus [10]; 0.91 mg/dL with Rattus norvegicus [13]. Also, the Activity entry in the data set with Rattus norvegicus [15] was “Non-toxic”. The UI in the data set on Rattus norvegicus [6] is listed as 11.
